# Measured values from PMC12040169 (PLOS Biology, 2025).
# Experiment: in vitro
# Details: human, hela cells, % viability
row,SMILES,"viability at 28.5 h, 10 µM [%]"
1,COC1C(O)C(CO)OC1n1cc(I)c(N)nc1=O (centres unmarked) [CBK201296],92.2
2,CN(C)c1ccc(-c2nc(N(C)C)n(C)n2)cn1 [CBK306858],90.1
3,CN(C)C(=O)CCNC(=O)c1ccc2c(c1)nc(N1CC[C@H](O)C1)n2C [CBK306671],92.4
4,Cc1cc(F)ccc1S(=O)(=O)NCC1CC(=O)Nc2ccccc21 (centres unmarked) [CBK305210],86.5
5,COc1ccc(C(=O)O)cc1N1C(=O)CC(c2c(C)nn(-c3ccccc3)c2N)C1=O (centres unmarked) [CBK291120],112
6,COC(=O)c1c(NC(=S)Nc2ccccc2)sc(Cc2ccccc2)c1C [CBK263501],90.6
7,O=C1C2C3C=CC(C3)C2C(=O)N1CCN1CCN(S(=O)(=O)/C=C/c2ccccc2)CC1 (centres unmarked) [CBK263663],88.4
8,O=C(OCCCc1cccnc1)c1cc(=O)[nH]c2ccccc12 [CBK295631],99.7
9,COc1cc(-c2cnc3[nH]c(=O)n(Cc4ccco4)c3n2)cc(OC)c1OC [CBK064755],96.3
10,CC(C(=O)Nc1ccc(S(N)(=O)=O)cc1)N1CCCc2ccccc21 (centres unmarked) [CBK306108],116
11,Cc1cc2nc(SCCO)[nH]c2cc1C [CBK027546],94.1
12,Cc1ccc(-c2nnc(SCC(=O)Nc3ccc(N4CCOCC4)cc3)n2C)cc1 [CBK270247],111
13,Cn1c(N2CC[C@H](O)C2)nc2cc(C(=O)NCCc3cscn3)ccc21 [CBK306824],88.5
14,Cc1ccc(CC(=O)N2CCC(Cc3ccccc3-c3ccccc3)(C(N)=O)CC2)cc1 [CBK285740],110
15,CCN(CC)CCSc1nc(O)c(Cc2ccccc2)c(=O)[nH]1 [CBK072486],88.9
16,Cc1nn(C)c(N2CCNCC2)c1NC(=O)c1cc(-c2ccccc2)oc1C [CBK050356T],92.8
17,Cc1cccc(OCC2CCCN(C(=O)c3cn(C)cn3)C2)c1 (centres unmarked) [CBK307021],83.4
18,O=C(NCCCCNC(=O)c1scc(-c2ccccc2)c1C(=O)O)c1scc(-c2ccccc2)c1C(=O)O [CBK296086],107
19,CN(C)C1Cc2cccc3nc(S(C)(=O)=O)n(c23)C1 (centres unmarked) [CBK007942],94.8
20,Cc1cc(C)nc(SCc2csc(N)n2)n1 [CBK019838],106
21,O=C(O)C1CCCCC1C(=O)NCCc1ccc(Cl)cc1 (centres unmarked) [CBK267972],98.5
22,CC(C)(C)c1ccc(C(=O)N2CCC(C(=O)O)CC2)cc1 [CBK286949],108
23,COc1cc(CNC2CCCCC2)ccc1OCC(N)=O [CBK263866],90.9

row,SMILES,"viability at 28.5 h, 10 µM [%]"
1,CN1CCC(N2CCN(C(=O)c3ccc4c(c3)no[n+]4[O-])CC2)CC1 [CBK149095],92.6
2,COc1ccc(C2CC(Cn3cc(C(C)=O)c(=O)[nH]c3=O)ON2C)cc1 (centres unmarked) [CBK019386],95.7
3,Cc1nc(CC(=O)N2CCC[C@@H]3[C@H]2CCCCc2ccccc2OCC(=O)N3C)cs1 [CBK292091],113
4,O=C(CSc1nnc(-c2ccc(F)cc2)n1-c1ccccc1)Nc1cccc2ccccc12 [CBK267592],89.8
5,O=C(CN1CCN(Cc2ccccc2)CC1)Nc1cccc(Cl)c1 [CBK267850],113
6,CCc1c(C)nc(N)nc1N1N=C1SC(C(C)=O)C(C)=O [CBK268558],99.4
7,O=C(O)CCCNc1ncnc2c1oc1ccccc12 [CBK287573],101
8,Cc1cc(-c2csc(CC(C)n3cc(Cl)cn3)n2)on1 (centres unmarked) [CBK304700],91.3
9,CCC(C)c1nnc(C2(c3ccc(Br)cc3)CCOCC2)o1 (centres unmarked) [CBK306229],99.7
10,Cc1ccc2cc(C)c3nn(CC(=O)NC4CC4)c(=O)n3c2c1C [CBK283822],83.8
11,O=C(O)c1ccc(N2C(=O)CC(N3CCN(Cc4ccc5c(c4)OCO5)CC3)C2=O)cc1 (centres unmarked) [CBK074573],87.1
12,O=C(O)c1cccc(CSCC(=O)N2CCC(Cc3ccccc3)CC2)c1 [CBK296675],102
13,c1ccc(-n2ncc3c(N4CCCC4)ncnc32)cc1 [CBK287357],86.6
14,CC1CCN(S(=O)(=O)N2CCCC2c2cccc(F)c2)CC1 (centres unmarked) [CBK281957],93.2
15,COC(=O)c1ccccc1NC(=O)c1ccc(-n2cnnn2)cc1 [CBK058360],91.1
16,CN(Cc1cccnc1)CC1CCCN(C(=O)Nc2ccc(Cl)cc2)C1 (centres unmarked) [CBK305428],83.9
17,Cc1cc(Cn2ccc(C(F)(F)F)n2)c(C)c(-c2c(C#N)c(N)nc3c2CCCCC3)c1 [CBK267928],104
18,N#Cc1cnccc1N1CC2COCCC2(C(=O)N2CCCC2)C1 (centres unmarked) [CBK304731],83
19,OC1(CN2CCCC2)CCN(Cc2sccc2Cl)CC1 [CBK307491],105
20,CC(C)Cn1cncc1CNS(=O)(=O)c1cccc(C(=O)N2CCC2)c1 [CBK307068],90.3
21,C#CCN1C(=O)C2(OCCO2)c2cccc(C)c21 [CBK019069],95.1
22,COc1ccc(C(=O)CCN(C)CC(=O)O)cc1 [CBK287227],89.7
23,c1ccc(CC2CCN(CCc3c[nH]c4ccccc34)CC2)cc1 [CBK126385],94.9

row,SMILES,"viability at 28.5 h, 10 µM [%]"
1,CCNC(=O)NC[C@H]1C[C@@H]2CCN1C[C@@H]2c1cc(-c2ccccc2OC)nn1C [CBK289105],118
2,CCCC/C=C/c1cc(NCCc2ccccn2)n2nccc2n1 [CBK037155],96.5
3,Cc1cccc(-c2n[nH]c(=S)n2CCC(=O)Nc2ccc(N3CCCC3=O)c(C)c2)c1 [CBK296733],89.1
4,CCCCNc1ncncc1-c1ccc(Br)cc1 [CBK005014C],88.6
5,C/C(=N/OCC(=O)Nc1oc(-c2ccccc2)c(-c2ccccc2)c1C#N)c1cccs1 [CBK262932],89.6
6,CCCn1c(O)nnc1-c1cccnc1 [CBK074889],86.8
7,CC(=O)ON=C1c2cc(S(=O)(=O)N(C)C)ccc2-c2ccc(S(=O)(=O)N(C)C)cc21 [CBK262807],87.1
8,Fc1ccccc1C1CCN(c2cncc(N3CCNCC3)n2)CC1 [CBK172236G],122
9,COc1ccccc1-c1cc(N2CCN(CC(=O)N(C)c3ccccc3)CC2)ncn1 [CBK091136],99
10,COc1cccc2c1cc(C(=O)NCCn1ccnc1C)n2C [CBK283267],101
11,Cc1noc(C)c1CCC(=O)N1CC[C@H]2NC(=O)c3ccccc3OCCCCC[C@H]2C1 [CBK292036],96.5
12,COc1ccc(CCNC(=O)CC2Sc3ccc(C(F)(F)F)cc3NC2=O)cc1OC (centres unmarked) [CBK265341],91.7
13,O=C(O)CCCn1cc(NC(=O)c2cccc(F)c2)cn1 [CBK270051],91.4
14,O=C(c1ccccc1F)N1C[C@H](c2ccsc2)[C@H]2CN(Cc3ccccc3)CC[C@H]21 [CBK285655],96.5
15,Cc1ccc(-c2cc(C(=O)N3CCOCC3)c3cc(Br)ccc3n2)cc1 [CBK066901],86.4
16,Cc1cc(NS(=O)(=O)c2ccc(NC(=O)c3cc4ccccc4o3)cc2)no1 [CBK267597],88
17,CCCNC(=O)Cn1cnc2sc(C)c(C)c2c1=O [CBK305863],88.8
18,CCCOc1ccc(-c2nnn(CC(=O)OCC)n2)cc1 [CBK068817],98.8
19,Cn1cc(CN2CCC(CNc3ccccn3)C2)cn1 (centres unmarked) [CBK304705],101
20,O=S(=O)(c1ccc(C(F)(F)F)cc1Cl)N1CCCN(Cc2cccc3c2OCO3)CC1 [CBK063067],98.6
21,COc1ccc([C@@]23CC[C@@H](NC(=O)Nc4ccnc5ccccc45)C[C@@H]2N(C)CC3)cc1OC [CBK045699],100
22,CCCc1occc1C(=O)N1CCOCC1C(=O)O (centres unmarked) [CBK304151],97.9
23,Cc1cc(C)cc(C(=O)N(CCc2ccccc2)C2CC3CCC(C2)N3C)c1 (centres unmarked) [CBK262612C],83.7

row,SMILES,"viability at 28.5 h, 10 µM [%]"
1,CC(C)(C)NC(=O)Cn1ccc2ccnc(-c3cccs3)c21 [CBK284737],94.1
2,CCN(CCC(F)(F)F)C(=O)Cc1csc(NC(=O)c2ccoc2C)n1 [CBK305729],83.3
3,NC(=O)C1CCN(C(=O)c2cc3c(=O)n4ccccc4nc3s2)CC1 [CBK296938],89.9
4,COc1cc(-c2cncc(N(CCO)CCO)n2)cc(OC)c1OC [CBK065544],112
5,CC(C)c1cc(C(=O)NC(C)(C)CN2CCCCC2C)n(C)n1 (centres unmarked) [CBK282644],96.4
6,Cc1cccc(C)c1OCC(=O)NC(C)C(=O)O (centres unmarked) [CBK287185],86.8
7,COc1ccc(NC(=O)CC(CN2CCN(c3ccc(Cl)cc3)CC2)C(=O)O)cc1 (centres unmarked) [CBK286831],101
8,COc1ccc(OCCCn2ccn(C(=O)CCCOc3ccc(Cl)cc3)c2=O)cc1 [CBK106662],94.3
9,O=C(c1ccncc1)N1Cc2ccccc2C1 [CBK200316],103
10,COCCCN1C(=O)C(O)=C(C(=O)c2ccc(C)o2)C1c1ccc(OC)cc1 (centres unmarked) [CBK264863],103
11,COc1cc([N+](=O)[O-])ccc1NC(=O)C1CC(Cl)=CCC1C(=O)O (centres unmarked) [CBK264956],88.8
12,Cc1nc(S(=O)(=O)Nc2nc(C(C)C)ns2)cn1C [CBK051323],107
13,CS(=O)(=O)Nc1cc2ccccc2c(-c2cccnc2)n1 [CBK085747],108
14,CC(=O)N1CCc2sccc2C1c1ccc(NCc2ccc(F)cc2F)cc1 (centres unmarked) [CBK286455],93.8
15,COCCCNC(=O)c1cnn2c(C)c(Cc3ccccc3)c(C)nc12 [CBK162216],94.6
16,CC(C)NC(=O)Cn1nc(-c2cc3c(s2)CCC3)oc1=O [CBK283801],88.3
17,Cc1ccc(S(=O)(=O)NC(C(=O)O)c2ccccc2)cc1 (centres unmarked) [CBK286985],106
18,CCc1nn2c(=O)cc(CNc3ccccc3CN(C)C(C)=O)nc2s1 [CBK305604],114
19,Cc1ccc(C(=O)NCC(=O)O)cc1S(=O)(=O)N1CCOCC1 [CBK264534],90.9
20,Cc1ccc(-c2cc(C(=O)N(C)Cc3cccn3C)[nH]n2)o1 [CBK283324],100
